From patent US10570122B2, “Compounds with anti-tumoral activity” (AB Science, priority 2015, dated 2020)
pIC50: −log10 of the molar value.

Legend:
CLS354 = test: CellTiter-Blue cell-based survival/proliferation assay, CLS354; details: Homo sapiens, CLS-354; CLS354_4 head & neck tumor cell line, 48 h
In short: (§1)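 Tenfold compound dilutions (0–10 μM) were added to 1·10^4 cells/well. Plates incubated 48 h at 37 °C. CellTiter-Blue reduction (4 h, 37 °C) was read as fluorescence at 590 nm, background-corrected with a cell-free blank.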

A549 = test: CellTiter-Blue cell-based survival/proliferation assay, A549; details: Homo sapiens; A549 lung tumor cell line, 48 h
In short: as §1

MDAMB231 = test: CellTiter-Blue cell-based survival/proliferation assay, MDAMB231; details: Homo sapiens, MDA-MB-231; MDAMB231 breast tumor cell line, 48 h
In short: as §1

HGC27 = test: CellTiter-Blue cell-based survival/proliferation assay, HGC27; details: Homo sapiens, HGC-27; HGC27 stomach tumor cell line, 48 h
In short: as §1

PC3 = test: CellTiter-Blue cell-based survival/proliferation assay, PC3; details: Homo sapiens, PC-3; PC3 prostate tumor cell line, 48 h
In short: as §1

MESSA = test: CellTiter-Blue cell-based survival/proliferation assay, MESSA; details: Homo sapiens, MES-SA; MESSA ovary tumor cell line, 48 h
In short: as §1

HCT116 = test: CellTiter-Blue cell-based survival/proliferation assay, HCT116; details: Homo sapiens, HCT-116; HCT116 colorectal tumor cell line, 48 h
In short: as §1

H1299 = test: CellTiter-Blue cell-based survival/proliferation assay, H1299; details: Homo sapiens, NCI-H1299; H1299 lung tumor cell line, 48 h
In short: as §1

DU145 = test: CellTiter-Blue cell-based survival/proliferation assay, DU145; details: Homo sapiens, DU-145; DU145 prostate tumor cell line, 48 h
In short: as §1

CALU6 = test: CellTiter-Blue cell-based survival/proliferation assay, CALU6; details: Homo sapiens, Calu-6; CALU6 lung tumor cell line, 48 h
In short: as §1

HEP2 = test: CellTiter-Blue cell-based survival/proliferation assay, HEP2; details: Homo sapiens, HEp-2; HEP2 head & neck tumor cell line, 48 h
In short: as §1

HUT78 = test: CellTiter-Blue cell-based survival/proliferation assay, HUT78; details: Homo sapiens, Lymphoma cell line HUT78, 48 h, read-out: Anti-tumoral activity (measured IC50) HUT78
Description: (§2) Cell-Based Proliferation Screening of Compounds
(§3) CellTiter-Blue cell-based survival/proliferation assay (Promega G8080) was performed on tumor cell lines. A total of 1·10^4 cells/well/50 μl were seeded in a 96-wells plate. Treatment was initiated by addition of a 2× drug solution of 1/10 serial dilutions ranging from 0 to 10 μM. Cells were grown for 48 h at 37° C. and then incubated with 10 μl/well of Promega CellTiter-Bleue reagent for 4 h at 37° C. The amount of resorufin dye formed was quantified by its fluorescence emission at 590 nm using a scanning multiwell spectrophotometer (OPTIMA, BMG labtech, France). A blank well without cells was used as a background control for the spectrophotometer.

OPM2 = test: CellTiter-Blue cell-based survival/proliferation assay, OPM2; details: Homo sapiens, OPM-2, Myeloma cell line OPM2, 48 h, read-out: Anti-tumoral activity (measured IC50) OPM2
In short: as §1

HL60 = test: CellTiter-Blue cell-based survival/proliferation assay, HL60; details: Homo sapiens, HL-60, Leukemia cell line HL60, 48 h, read-out: Anti-tumoral activity (measured IC50) HL60
In short: as §1

REC1 = test: CellTiter-Blue cell-based survival/proliferation assay, REC1; details: Homo sapiens, Lymphoma cell line REC1, 48 h, read-out: Anti-tumoral activity (measured IC50) REC1
Description: as §2, §3

BXPC3 = test: CellTiter-Blue cell-based survival/proliferation assay, BXPC3; details: Homo sapiens, BXPC-3; BXPC3 pancreas tumor cell line, 48 h
In short: as §1

PANC1 = test: CellTiter-Blue cell-based survival/proliferation assay, PANC1; details: Homo sapiens, PANC-1; PANC_1 pancreas tumor cell line, 48 h
In short: as §1

BT20 = test: CellTiter-Blue cell-based survival/proliferation assay, BT20; details: Homo sapiens, BT-20; BT20 breast tumor cell line, 48 h
In short: as §1

SW579 = test: CellTiter-Blue cell-based survival/proliferation assay, SW579; details: Homo sapiens; SW579 head & neck tumor cell line, 48 h
In short: as §1

ACHN = test: CellTiter-Blue cell-based survival/proliferation assay, ACHN; details: Homo sapiens; ACHN kidney tumor cell line, 48 h
In short: as §1

DLD1 = test: CellTiter-Blue cell-based survival/proliferation assay, DLD1; details: Homo sapiens, DLD-1; DLD_1 colorectal tumor cell line, 48 h
In short: as §1

[1] = test system: panel of about 34 human tumor cell lines; test: Cell-based proliferation screening on panel of tumor cell lines; details: solid tumor cell line, cell line unknown, 48 h, read-out: IC50, solid tumor cell line of column 6 (last section of Table 3)
In short: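 CellTiter-Blue survival assay with 1·10^4 cells/well, each line treated 48 h at 37° C with 1/10 serial dilutions from 0 to 10 μM. Resorufin formed during a 4 h reagent incubation is read by fluorescence at 590 nm. A cell-free blank serves as background.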

PLCPRF5 = test: CellTiter-Blue cell-based survival/proliferation assay, PLCPRF5; details: Homo sapiens, PLC-PRF-5; PLC_PRF5 liver tumor cell line, 48 h
In short: as §1

TOV112D = test: CellTiter-Blue cell-based survival/proliferation assay, TOV112D; details: Homo sapiens; TOV112D ovary tumor cell line, 48 h
In short: as §1

AGS = test: CellTiter-Blue cell-based survival/proliferation assay, AGS; details: Homo sapiens; AGS stomach tumor cell line, 48 h
In short: as §1

A498 = test: CellTiter-Blue cell-based survival/proliferation assay, A498; details: Homo sapiens; A498 kidney tumor cell line, 48 h
In short: as §1

HEPG2 = test: CellTiter-Blue cell-based survival/proliferation assay, HEPG2; details: Homo sapiens; HEPG2 liver tumor cell line, 48 h
In short: as §1

KARPAS299 = test: CellTiter-Blue cell-based survival/proliferation assay, KARPAS299; details: Homo sapiens, KARPAS-299, Lymphoma cell line KARPAS299, 48 h, read-out: Anti-tumoral activity (measured IC50) KARPAS299
Description: as §2, §3

Structure (SMILES) | pIC50 (CLS354) | pIC50 (A549) | pIC50 (MDAMB231) | pIC50 (HGC27) | pIC50 (PC3) | pIC50 (MESSA) | pIC50 (HCT116) | pIC50 (H1299) | pIC50 (DU145) | pIC50 (CALU6) | pIC50 (HEP2) | pIC50 (HUT78) | pIC50 (OPM2) | pIC50 (HL60) | pIC50 (REC1) | pIC50 (BXPC3) | pIC50 (PANC1) | pIC50 (BT20) | pIC50 (SW579) | pIC50 (ACHN) | further results
CCOCc1cc(COCC)cc(Nc2ncc(-c3ccc(-n4cccn4)cc3)o2)c1 [Example 022, (3,5-Bis-(ethoxymethyl)-phenyl)-[5-(4-pyrazol-1-yl-phenyl)-oxazol-2-yl]-amine] | < 6.00 | < 6.00 | < 6.00 | < 6.00 | < 6.00 | < 6.00 | < 6.00 | < 6.00 | < 6.00 | < 6.00 | < 6.00 | < 6.00 | 6.00 to 6.30 | < 6.00 | 6.00 to 6.30 | < 6.00 | < 6.00 | < 6.00 | < 6.00 | < 6.00 | pIC50 (DLD1): < 6.00; pIC50 [1]: 6.00 to 6.30; pIC50 (PLCPRF5): < 6.00; pIC50 (TOV112D): < 6.00; pIC50 (AGS): < 6.00; pIC50 (A498): < 6.00; pIC50 (HEPG2): < 6.00; pIC50 (KARPAS299): 6.30 to 7.00
COc1ccc(C)c(Nc2ncc(-c3ccc(-n4cccn4)cc3)o2)c1 [Example 023, (5-Methoxy-2-methyl-phenyl)-[5-(4-pyrazol-1-yl-phenyl)-oxazol-2-yl]-amine] | 6.30 to 7.00 | < 6.00 | < 6.00 | < 6.00 | < 6.00 | < 6.00 | < 6.00 | < 6.00 | < 6.00 | < 6.00 | < 6.00 | 6.30 to 7.00 | 6.30 to 7.00 | 6.30 to 7.00 | 6.30 to 7.00 | < 6.00 | < 6.00 | < 6.00 | < 6.00 | < 6.00 | pIC50 (DLD1): < 6.00; pIC50 [1]: 6.30 to 7.00; pIC50 (PLCPRF5): < 6.00; pIC50 (TOV112D): < 6.00; pIC50 (AGS): < 6.00; pIC50 (A498): < 6.00; pIC50 (HEPG2): < 6.00; pIC50 (KARPAS299): 6.30 to 7.00
Cc1ccc(COCCN)cc1Nc1ncc(-c2ccc(-n3cccn3)cc2)o1 [Example 024, [5-(2-Amino-ethoxymethyl)-2-methyl-phenyl]-[5-(4-pyrazol-1-yl-phenyl)-oxazol-2-yl]-amine] | < 6.00 | < 6.00 | < 6.00 | < 6.00 | < 6.00 | < 6.00 | < 6.00 | < 6.00 | < 6.00 | < 6.00 | < 6.00 | < 6.00 | < 6.00 | < 6.00 | < 6.00 | < 6.00 | < 6.00 | < 6.00 | < 6.00 | < 6.00 | pIC50 (DLD1): < 6.00; pIC50 [1]: < 6.00; pIC50 (PLCPRF5): < 6.00; pIC50 (TOV112D): < 6.00; pIC50 (AGS): < 6.00; pIC50 (A498): < 6.00; pIC50 (HEPG2): < 6.00; pIC50 (KARPAS299): < 6.00
CC(=O)NCCOCc1ccc(C)c(Nc2ncc(-c3ccc(-n4cccn4)cc3)o2)c1 [Example 025, N-(2-{4-Methyl-3-[5-(4-pyrazol-1-yl-phenyl)-oxazol-2-ylamino]-benzyloxy}-ethyl)-acetamide] | < 6.00 | < 6.00 | < 6.00 | < 6.00 | < 6.00 | < 6.00 | < 6.00 | < 6.00 | < 6.00 | < 6.00 | < 6.00 | < 6.00 | < 6.00 | < 6.00 | < 6.00 | < 6.00 | < 6.00 | < 6.00 | < 6.00 | < 6.00 | pIC50 (DLD1): < 6.00; pIC50 [1]: < 6.00; pIC50 (PLCPRF5): < 6.00; pIC50 (TOV112D): < 6.00; pIC50 (AGS): < 6.00; pIC50 (A498): < 6.00; pIC50 (HEPG2): < 6.00; pIC50 (KARPAS299): < 6.00
Cc1ccc(COCCO)cc1Nc1ncc(-c2ccc(-n3cccn3)cc2)o1 [Example 026, 2-{4-Methyl-3-[5-(4-pyrazol-1-yl-phenyl)-oxazol-2-ylamino]-benzyloxy}-ethanol] | < 6.00 | < 6.00 | < 6.00 | < 6.00 | < 6.00 | < 6.00 | < 6.00 | < 6.00 | < 6.00 | < 6.00 | < 6.00 | < 6.00 | < 6.00 | < 6.00 | < 6.00 | < 6.00 | < 6.00 | < 6.00 | < 6.00 | < 6.00 | pIC50 (DLD1): < 6.00; pIC50 [1]: < 6.00; pIC50 (PLCPRF5): < 6.00; pIC50 (TOV112D): < 6.00; pIC50 (AGS): < 6.00; pIC50 (A498): < 6.00; pIC50 (HEPG2): < 6.00; pIC50 (KARPAS299): < 6.00
